Measurements taken from article PMC9579956 (RSC Medicinal Chemistry, 2022).

molecular target: Mycobacterium thermoresistible (Mtr) LpqY (Mycolicibacterium thermoresistibile, UniProt G7CES0); assay type: binding; settings: single dose MST screen against LpqY
Sequence (G7CES0 29-471): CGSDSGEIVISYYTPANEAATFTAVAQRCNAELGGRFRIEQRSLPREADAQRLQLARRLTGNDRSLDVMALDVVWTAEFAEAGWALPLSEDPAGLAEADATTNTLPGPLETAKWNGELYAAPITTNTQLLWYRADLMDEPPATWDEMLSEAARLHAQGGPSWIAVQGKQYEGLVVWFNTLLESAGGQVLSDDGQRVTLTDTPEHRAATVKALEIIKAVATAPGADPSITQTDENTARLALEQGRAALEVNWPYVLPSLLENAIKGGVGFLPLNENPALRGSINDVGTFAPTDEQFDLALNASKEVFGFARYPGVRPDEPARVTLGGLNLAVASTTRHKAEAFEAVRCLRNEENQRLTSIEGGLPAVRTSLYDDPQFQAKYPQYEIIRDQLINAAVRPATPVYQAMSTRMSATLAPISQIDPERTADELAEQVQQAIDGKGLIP

First: CC(C)(C)n1nc(Cc2ccc(F)c(Cl)c2)c2c(N)ncnc21 [MMV688852]
Second: CC(C)(C)OC(=O)N1CCC(Cn2nc(-c3cnc4ccccc4c3)c3c(N)ncnc32)CC1 [MMV688364]
The “Pathogen Box screen signal/noise ratio” value of the first is higher: 0.7 for the first, 0.6 for the second.

Compared with `c1cncc(NCc2ccc(-c3cc4ccncc4cc3OC3CCNCC3)s2)c1` [MMV023969], `O=C(Nc1ccccc1)c1ccc(-c2cc3ccncc3cc2OC2CCNCC2)s1` [MMV024035] is higher in “Pathogen Box screen signal/noise ratio” value: 1.3 for the first, 2.8 for the second.

First: CCCc1ccc(S(=O)(=O)Nc2ccc(CN3CCN(CC4CC4)CC3)cc2)cc1 [MMV688125]
Second: CS(=O)(=O)N1CCC(Cn2nc(Cc3cccc4ccccc34)c3c(N)ncnc32)CC1 [MMV676050]
The “Pathogen Box screen signal/noise ratio” value of the first is lower: 0.6 for the first, 0.8 for the second.

First: COC(=O)c1c(NC(=O)c2cc3ccccc3oc2=O)sc2c1CCN(Cc1ccccc1)C2 [MMV676480]
Second: O=C(Nc1ccccc1-c1nc2c(C(=O)O)cccc2o1)c1ccccc1 [MMV676162]
The “Pathogen Box screen signal/noise ratio” value of the first is higher: 1.3 for the first, 0.9 for the second.

Going from `Cc1[nH]c2cc(F)cc(F)c2c(=O)c1-c1ccc(Oc2ccc(OC(F)(F)F)cc2)cc1` [MMV671636] to `COc1ccc(-c2onc(C(F)(F)F)c2-c2ccc(Cl)cc2)c(O)c1` [MMV688766], the “Pathogen Box screen signal/noise ratio” value rises from 0.545 to 0.9.

Compared with `O=C(NC1CCN(c2ccnc3ccccc23)C1)c1cccc(C(F)(F)F)c1` (centres unmarked) [MMV023388], `FC(F)(F)c1cc(NCCc2ccccc2)nc(-c2ccccn2)n1` [MMV659010] is higher in “Pathogen Box screen signal/noise ratio” value: -0.0357 for the first, 1.0 for the second.

Going from `CCc1ccc([C@@H]2C[C@H](C(F)(F)F)n3ncc(C(=O)NCc4ccc(OC)cc4)c3N2)cc1` [MMV687180] to `COc1ccc(-c2cnc3ccc(NCc4ccc(S(N)(=O)=O)cc4)nn23)cn1` [MMV010545], the “Pathogen Box screen signal/noise ratio” value falls from 1.9 to 0.463.

Compared with `Cc1nnc(NCc2cccc(Cl)c2)c2ccccc12` [MMV676555], `Clc1cccc(CO[C@H]2CCc3ccccc3[C@@H]2n2ccnn2)c1` [MMV676159] is higher in “Pathogen Box screen signal/noise ratio” value: 0.9 for the first, 1.0 for the second.

Compared with `CC(=O)N(CCN(C(=O)c1ccc(F)cc1)c1ccccc1)c1ccccc1` [MMV676064], `CNC(=O)C1Cc2ccccc2N1C(=O)Cc1ccc(F)cc1` (centres unmarked) [MMV188296] is higher in “Pathogen Box screen signal/noise ratio” value: 0.35 for the first, 1.9 for the second.

First: CC(C)NCC(=O)Nc1cccc(C(=O)Nc2cccc(C(F)(F)F)c2)c1 [MMV020165]
Second: CC(C)(C)c1cc(C(=O)Nc2cccnc2)cc(C(=O)Nc2cccnc2)c1 [MMV020982]
The “Pathogen Box screen signal/noise ratio” value of the first is higher: 4.3 for the first, 1.3 for the second.

Compared with `COC(=O)c1c(NC(=O)c2c(F)c(F)c(F)c(F)c2F)sc2c1CCCCC2` [MMV461553], `Cc1nn2c(O)c3c(nc2c1-c1ccc(F)cc1)CCCC3` [MMV099637] is higher in “Pathogen Box screen signal/noise ratio” value: 2.6 for the first, 3.3 for the second.

First: CCc1ccc(C(NCc2nc(N)nc(N(C)C)n2)C(C)C)cc1 (centres unmarked) [MMV1019989]
Second: COc1ccc(OC)c(NCc2ccc3nc(N)nc(N)c3c2Cl)c1 [MMV675968]
The “Pathogen Box screen signal/noise ratio” value of the first is lower: 0.5 for the first, 5.0 for the second.

First: COc1cc(OC)cc(C(=O)NCC2Cc3cc(Cl)cc(-c4ccncc4)c3O2)c1 (centres unmarked) [MMV007471]
Second: CC(C)c1ncc(-c2ccncc2)c([C@H]2CC[C@H](CNC(=O)c3cccnc3)CC2)n1 [MMV676442]
The “Pathogen Box screen signal/noise ratio” value of the first is lower: 0.2 for the first, 0.8 for the second.

Compared with `Nc1ncnc2c1ncn2[C@@H]1O[C@H](COS(=O)(=O)NC(=O)c2ccccc2O)[C@@H](O)[C@H]1O` [MMV687700], `Nc1ncnc2c1c(Cc1cccc3ccccc13)nn2CC1CCNCC1` [MMV676182] is lower in “Pathogen Box screen signal/noise ratio” value: 1.1 for the first, 0.0 for the second.

Going from `Cc1cccc(-c2nc(Nc3ccncn3)c3sccc3n2)n1` [MMV688122] to `Cc1cc(Nc2ccncc2)n2nc(C)c(-c3ccccc3Cl)c2n1` [MMV016136], the “Pathogen Box screen signal/noise ratio” value rises from 1.3 to 1.7.

Going from `CC(=O)NC[C@@H]1CN(c2ccc(N3CCOCC3)c(F)c2)C(=O)O1` [MMV687803] to `O=C1O[C@@H](CO)CN1c1cc(F)c(C2=CCN(Cc3ccccc3)CC2)c(F)c1` [MMV687729], the “Pathogen Box screen signal/noise ratio” value falls from 2.0 to 1.5.

Going from `CCn1cnc2c(Nc3cc(F)cc(F)c3)nc(C#N)nc21` [MMV676881] to `Cc1cc(Nc2ccc(C(F)(F)F)cc2)n2ccnc2n1` [MMV011229], the “Pathogen Box screen signal/noise ratio” value falls from 0.536 to 0.2.

First: CCC(NC(=O)c1ccccc1NC(=O)c1ccc(C)cc1)C(=O)OC (centres unmarked) [MMV019551]
Second: Cc1ccc(NC(=O)c2nc[nH]c2C(=O)Nc2nc3ccccc3[nH]2)c(C)c1 [MMV011903]
The “Pathogen Box screen signal/noise ratio” value of the first is lower: 0.267 for the first, 1.4 for the second.

First: c1coc(CNc2nc(N3CCCCC3)nc3ccccc23)c1 [MMV676401]
Second: COc1cccc(-c2nc3c(N4CCCC4)cccc3n2CC2CCCN2)n1 (centres unmarked) [MMV687703]
The “Pathogen Box screen signal/noise ratio” value of the first is higher: 1.9 for the first, 1.3 for the second.

Compared with `CCN(CC)CCCCCCNc1cc(OC)cc2c(C)ccnc12` [MMV000063], `CCN(CC)CCCN1CCN(C(=O)c2cccc(-c3noc(C(F)(F)F)n3)c2)CC1` [MMV022236] is lower in “Pathogen Box screen signal/noise ratio” value: 2.2 for the first, 0.542 for the second.

Going from `N=C(N)Nc1ccc(-c2ccc(-c3ccc(N=C(N)N)c(Cl)c3)o2)cc1Cl` [MMV688271] to `N=C(N)c1ccc(-c2cc(-c3ccccc3)on2)cc1` [MMV688514], the “Pathogen Box screen signal/noise ratio” value falls from 2.0 to 1.1.

First: O=C(NCCc1ccccc1)c1cc(-c2cccnc2)cnc1NCC1CC1 [MMV026490]
Second: O=C(Nc1cccc(-c2ccc(NCCCN3CCCC3)nc2)c1)c1ccccc1 [MMV023953]
The “Pathogen Box screen signal/noise ratio” value of the first is lower: 1.4 for the first, 2.4 for the second.

Going from `COc1cc(NC(=O)Cc2nn(C)c(=O)c3ccccc23)ccc1Cl` [MMV676053] to `Cc1ccc2oc(-c3cc(NC(=O)Cc4ccccc4)ccc3Cl)nc2c1` [MMV676509], the “Pathogen Box screen signal/noise ratio” value rises from 1.3 to 3.4.

Compared with `O=C(Nc1nnc(-c2ccc(Cl)s2)o1)c1ccc(Cl)s1` [MMV676501], `Cc1cc(C)n(-c2ccc(NC(=O)C3CCN(Cc4cnc(C)s4)CC3)cc2)n1` [MMV007625] is higher in “Pathogen Box screen signal/noise ratio” value: 0.556 for the first, 1.4 for the second.

First: COc1ccc(C2=NCCN2)cc1-c1cn(-c2cccc(C3=NCCN3)c2)nn1 [MMV688547]
Second: Clc1ccc(-n2cc(COc3ccnc4ccccc34)nn2)cc1 [MMV675994]
The “Pathogen Box screen signal/noise ratio” value of the first is lower: 0.9 for the first, 3.3 for the second.

Compared with `Cc1ccc2nc(Cl)c(CNCc3cccs3)cc2c1` [MMV676439], `CCc1nc2ccc(C(=O)NCc3ccc4c(c3)OCO4)cn2c1N(C)Cc1cccs1` [MMV407539] is lower in “Pathogen Box screen signal/noise ratio” value: 0.278 for the first, 0.241 for the second.

Compared with `COc1ccc(Cl)cc1NC(=O)CN(C)C(=O)c1cnn(-c2ccccc2)n1` [MMV020710], `O=C(Nc1ccc(F)c(-c2nc3cc(-c4ccccc4)cnc3[nH]2)c1)N1CCCC1` [MMV688372] is lower in “Pathogen Box screen signal/noise ratio” value: 1.8 for the first, 0.9 for the second.

First: CC(C)(CN)c1nc(-c2ccc(Cl)c(O)c2)c(-c2ccnc(N)n2)[nH]1 [MMV030734]
Second: Nc1nccc2ccc(Oc3ccncc3)cc12 [MMV026313]
The “Pathogen Box screen signal/noise ratio” value of the first is higher: 3.5 for the first, 1.4 for the second.

Compared with `COc1cccn2c(C(=O)N3CCCCC3)c(C(F)(F)F)nc12` [MMV1110498], `O=C(C1CCCCC1)N1CC(=O)N2CCc3ccccc3C2C1` (centres unmarked) [MMV002529] is lower in “Pathogen Box screen signal/noise ratio” value: 1.5 for the first, 0.167 for the second.

First: Cc1ccc2[nH]c(C3CCCNC3)c(-c3ccncc3)c2c1 (centres unmarked) [MMV024311]
Second: CN1CCN(c2nccc3[nH]c(-c4cccc(F)c4)cc23)CC1 [MMV393144]
The “Pathogen Box screen signal/noise ratio” value of the first is lower: 0.4 for the first, 1.4 for the second.

First: CC(C)(C)C1CCC(CC2=C(O)C(=O)c3ccccc3C2=O)CC1 (centres unmarked) [MMV689480]
Second: COc1ccc(C2=NN(C3CCCCCC3)C(=O)C2(C)C)cc1OCc1ccccn1 [MMV688360]
The “Pathogen Box screen signal/noise ratio” value of the first is higher: 2.3 for the first, 1.5 for the second.

First: NCC(=O)N1CCn2c(nc(-c3ccccc3)c2Nc2ccc3c(c2)OCO3)C1 [MMV011691]
Second: CN(C)CCNC(=O)N1CCCN(c2ncnc3cc(-c4ccccc4)sc23)CC1 [MMV024195]
The “Pathogen Box screen signal/noise ratio” value of the first is higher: 1.3 for the first, 0.217 for the second.

Compared with `Clc1ccc(Cl)c(CO[C@H]2CCCC[C@@H]2n2ccnc2)c1` [MMV676048], `CC1COC(Cn2cncn2)(c2ccc(Oc3ccc(Cl)cc3)cc2Cl)O1` (centres unmarked) [MMV688943] is lower in “Pathogen Box screen signal/noise ratio” value: 1.1 for the first, 0.75 for the second.

First: CN1CCN(CCCOc2ncc(Nc3ncc(-c4ccc(C(F)(F)F)c(F)c4)nc3C(N)=O)cn2)CC1 [MMV687812]
Second: CN1CCN(S(=O)(=O)c2ccc(-c3ccc4c(Nc5ncc(Cl)cn5)ccnc4c3)cc2)CC1 [MMV688283]
The “Pathogen Box screen signal/noise ratio” value of the first is higher: 4.1 for the first, 1.8 for the second.

First: O=C1Nc2ccc(Br)cc2C12NCCc1c2[nH]c2ccccc12 (centres unmarked) [MMV006239]
Second: c1ccc(Oc2ccc(-c3cc(N4CCNCC4)[nH]n3)cc2)cc1 [MMV687706]
The “Pathogen Box screen signal/noise ratio” value of the first is higher: 2.0 for the first, -0.0238 for the second.

First: C[C@H](C(N)=O)N1CCCC[C@@H]1c1ccc(OCc2cccc(F)c2)cc1 [MMV676270]
Second: N#Cc1ccc(-c2ccc(OCC(N)=O)cc2)cc1 [MMV053220]
The “Pathogen Box screen signal/noise ratio” value of the first is higher: 0.9 for the first, 0.639 for the second.

First: c1ccc(C[C@@H]2CN(c3nccc(Oc4ccc(-n5ccnc5)cc4)n3)CCN2)cc1 [MMV687749]
Second: N#CCN(CCCCN1CCN(c2ccc(F)cc2)CC1)C(=O)OCc1ccccc1 [MMV675997]
The “Pathogen Box screen signal/noise ratio” value of the first is lower: 0.0357 for the first, 0.322 for the second.

First: CCOC(=O)c1cc(-c2csc(Nc3c(C)cc(C)cc3C)n2)on1 [MMV676461]
Second: Cc1nn(C)c(C)c1NS(=O)(=O)c1c(Cl)cc(-c2ccnc(N3CCNCC3)c2)cc1Cl [MMV688180]
The “Pathogen Box screen signal/noise ratio” value of the first is higher: 2.4 for the first, 0.15 for the second.

Going from `CS(=O)(=O)c1cccc(-c2cnc3[nH]cc(-c4ccc(CCC(=O)O)cc4)c3c2)c1` [MMV026020] to `O=C(Cn1ccnc1[N+](=O)[O-])NCc1ccccc1` [MMV688773], the “Pathogen Box screen signal/noise ratio” value rises from 1.4 to 2.9.

First: CC(C)=CCC/C(C)=C\CNCCNC1C2CC3CC(C2)CC1C3 (centres unmarked) [MMV687273]
Second: CCn1ncc2c(NC3CCOCC3)c(CNC(=O)c3ccnn3C)c(C)nc21 [MMV026356]
The “Pathogen Box screen signal/noise ratio” value of the first is higher: 1.3 for the first, 0.6 for the second.
